# Legend:
# [1] = system: PR cellular signaling pathway; assay: PR pathway activity inferred by Bayesian network models, ishikawa IKPR-AB36 endometrium cell line (GSE29435); format: cell-based; conditions: PR-A, PR-B and PR-A&B models; 1 nM, 48h; versus control treated samples
# Source text: (§1) Herein, an exemplary Bayesian network model as shown in FIG. 1 was used to model the transcriptional program of the PR cellular signaling pathway in a simple manner. The model consists of three types of nodes: (a) a transcription factor (TF) element (with states “absent” and “present”) in a first layer 1; (b) target genes TG1, TG2, TGn (with states “down” and “up”) in a second layer 2, and; (c) measurement nodes linked to the expression levels of the target genes in a third layer 3. These can be microarray probesets PS1,1, PS1,2, PS1,3, PS2,1, PSn,1, PSn,m (with states “low” and “high”), as preferably used herein, but could also be other gene expression measurements such as RNAseq or RT-qPCR.
# (§2) Once the exemplary Bayesian network model is built and calibrated (see below), the model can be used on microarray data of a new sample by entering the probeset measurements as observations in the third layer 3, and inferring backwards in the model what the probability must have been for the TF element to be “present”. Here, “present” is considered to be the phenomenon that the TF element is bound to the DNA and is controlling transcription of the cellular signaling pathway's target genes, and “absent” the case that the TF element is not controlling transcription.
# (§3) The models are identified by their target gene list and calibration set. […]
# [2] = system: PR cellular signaling pathway; assay: PR pathway activity inferred by Bayesian network models, PR-B expressing hMEC breast cell line (GSE24468); format: cell-based; conditions: PR-A, PR-B and PR-A&B models; 10 nM, 16h; versus control treated samples
# Source text: as §1, §2, §3
# [3] = system: PR-B cellular signaling pathway; assay: PR-B pathway activity in paired pre/post letrozole treatment breast cancer samples (GSE10281); format: in vivo, human; conditions: ER positive breast cancer patients, 3 months neoadjuvant treatment
# Source text: as §1, §2, §3
# [4] = system: tumor growth in xenograft models; conditions: cited from earlier work
compound,measurement,setting,value
"CC(=O)O[C@]1(C(C)=O)CC[C@H]2[C@@H]3C[C@H](C)C4=CC(=O)CC[C@]4(C)[C@H]3CC[C@@]21C [MPA, medroxyprogesterone acetate]",PR cellular signaling pathway activity levels (odds PR on:off),[1],significantly higher
"CCC(=O)[C@@]1(C)CC[C@H]2[C@@H]3CCC4=CC(=O)CCC4=C3CC[C@@]21C [R5020, promegestone]",PR cellular signaling pathway activity levels,[2],significantly higher
N#Cc1ccc(C(c2ccc(C#N)cc2)n2cncn2)cc1 [letrozole],"Normalized PR-B cellular signaling pathway activity levels, post vs. pre treatment",[3]; non-responders,remain similar to pre-treatment
same,"Mean normalized PR-B cellular signaling pathway activity, post vs. pre treatment",[3]; responders,goes up
"CC(=O)[C@H]1CC[C@H]2[C@@H]3CCC4=CC(=O)CC[C@]4(C)[C@H]3CC[C@]12C [progesterone, Progesterone]",Effect over tamoxifen regarding controlling tumor growth,[4],additive effect
